Activity calls are given as the source filed them. The calls are words filed in the database; no cut-off is given here.
Columns and labels:
[1] = test system: Bombyx mori; assay: Antijuvenile hormone activity in third-instar larvae of Bombyx mori assessed as induction of precocious metamorphosis at 10 ug/larvae topically applied to the dorsal abdomen; type: functional
[2] = test system: Bombyx mori; assay: Antijuvenile hormone activity in third-instar larvae of Bombyx mori assessed as induction of precocious metamorphosis at 40 ug/larvae topically applied to the dorsal abdomen; type: functional
[3] = test system: Bombyx mori; assay: Antijuvenile hormone activity in third-instar larvae of Bombyx mori assessed as induction of precocious metamorphosis at 1 ug/larvae topically applied to the dorsal abdomen; type: functional
[4] = test system: Bombyx mori; assay: Juvenile hormone activity in allatectomized fourth-instar larvae of Bombyx mori assessed as number of larvae transformed into precocious pupa at 1 ug/larvae topically applied to the dorsal abdomen; type: functional, organism-based
[5] = test system: Bombyx mori; assay: Juvenile hormone activity in allatectomized fourth-instar larvae of Bombyx mori assessed as number of larvae transformed into fifth instar larvae at 1 ug/larvae topically applied to the dorsal abdomen; type: functional, organism-based
[6] = test system: Bombyx mori; assay: Juvenile hormone activity in allatectomized fourth-instar larvae of Bombyx mori assessed as number of larvae transformed into larval-pupal intermediate at 1 ug/larvae topically applied to the dorsal abdomen; type: functional, organism-based
[7] = test system: Bombyx mori; assay: Juvenile hormone activity in allatectomized fourth-instar larvae of Bombyx mori assessed as number of larvae transformed into larval-pupal intermediate at 40 ug/larvae topically applied to the dorsal abdomen; type: functional, organism-based
[8] = test system: Bombyx mori; assay: Juvenile hormone activity in allatectomized fourth-instar larvae of Bombyx mori assessed as number of larvae transformed into precocious pupa at 40 ug/larvae topically applied to the dorsal abdomen; type: functional, organism-based
[9] = test system: Bombyx mori; assay: Juvenile hormone activity in allatectomized fourth-instar larvae of Bombyx mori assessed as number of larvae transformed into fifth instar larvae at 40 ug/larvae topically applied to the dorsal abdomen; type: functional, organism-based

Row | Compound | Activity [1] [%] | Activity [2] [%] | Activity [3] [%] | Activity [4] | Activity [5] | Activity [6] | Activity [7] | Activity [8] | Activity [9]
1 | CCOC(=O)c1ccc(OCc2cc3ccccc3n2CC)cc1 | 5 | 5 | 5 | – | – | – | – | – | –
2 | CCOC(=O)c1ccc(OC[C@@H]2Cc3ccccc3N2Cc2ccccc2)cc1 | 25 | 28 | 5 | – | – | – | – | – | –
3 | CCCCC(COc1ccc(C(=O)OCC)cc1)Cc1ccccc1 (stereo unspecified) | 34 | 12 | 90 | – | – | – | – | – | –
4 | CCCn1c(COc2ccc(C(=O)OCC)cc2)cc2ccccc21 | 95 | 90 | 67 | – | – | – | – | – | –
5 | COC(C)(C)CCC[C@H](C)C/C=C/C(C)=C/C(=O)OC(C)C | – | – | – | inactive | Active | inactive | – | – | –
6 | CCOC(=O)c1ccc(OCc2cc3ccccc3n2Cc2ccccc2)cc1 | 73 | 84 | 73 | – | – | – | inactive | – | –
7 | CCCCn1c(COc2ccc(C(=O)OCC)cc2)cc2ccccc21 | 93 | 94 | 65 | – | – | – | inactive | inactive | Active
8 | CCCCN1c2ccccc2C[C@H]1COc1ccc(C(=O)OCC)cc1 | 65 | 82 | 5 | – | – | – | inactive | Active | inactive

From ChEMBL document CHEMBL3046331, “Ethyl 4-[(1-substituted indol-2-yl)methoxy]benzoates and indoline derivatives: Anti-juvenile hormone and juvenile hormone activities” (2009)
